EC50, IC50 and outcome data for 75 molecules are collected here from PubChem BioAssay AID179 (DTP/NCI, 2004).

For this assay, the system named is CEM cells HIV-1 protection, formazan growth assay. Put plainly: NCI AIDS Antiviral Assay. To be noted: for IC50: measured here: growth of uninfected CEM cells. In a few lines: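 Protection of CEM cells against HIV-1 was scored from cell growth (soluble formazan) across five concentrations, with parallel uninfected cells. Lack of protection may reflect toxicity.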

Several values for one entry are separate records, joined by “and”; a condition that tells them apart may be missing. Equal entries are not always repeated. Activity calls are given as the source filed them.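 How the source made its calls: active means compounds giving half or more protection of infected cells from virus-caused growth loss, again on retest; inactive means the rest.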

The term EC50 denotes the concentration that produces a half-maximal response. A word on the IC50: it is the point on the concentration scale where inhibition reaches its midpoint. Lower therefore signals greater potency. In the case of `Cc1n[nH]c(=O)n1N1C(=O)CCCC1=O`, the EC50 is > 200 µM and the IC50 was > 200 µM.
As to `COc1ccc2nc(C(=O)c3ccccc3)c(C)cc2c1`, the EC50 is > 25.7 µM and the IC50 was 17.4 µM.
With `CCC[CH2][Sn]1([CH2]CCC)[O]C(=O)c2cccnc2[O]1`, the EC50 is > 97.7 µM and the IC50 amounted to 0.0977 µM.
As to `Cc1cc(S(=O)(=O)Nc2nnc3c(Cl)cc(C(F)(F)F)cn23)c(S)cc1Cl`, the EC50 was 70.8 µM and the IC50 was 380 µM.
On to `C/C(CC(=O)Nc1cc(Cl)c(Cl)cc1Cl)=N\NC(N)=O`, for which the EC50 is > 21.4 µM and the IC50 came out at 2.75 µM.
As to `OCCC(Sc1ccccc1)Sc1ccccc1`, the outcome was inactive.
Take `O=C1C(/C=N\C(=S)NCc2ccccc2)=C(O)c2ccccc21`: the EC50 was > 200 µM and the IC50 is 67.6 µM.
Regarding `CC12CCC(C(=O)OC1=O)C(C)(C)O2` (stereo unspecified), the EC50 was > 200 µM and the IC50 was > 200 µM.
In the case of `COc1cc(OC)c(Oc2cccc(OC)c2OC)c(OC)c1`, the EC50 was > 16.2 µM and the IC50 was > 16.2 µM.
In the case of `O=[N+]([O-])c1ccc(Cl)cc1N/N=C/c1ccnc2ccccc12`, the outcome was inactive.
Regarding `Cn1c(=O)c2[nH]cnc2n(CC(N)=O)c1=O`, the EC50 was > 562 µM and the IC50 was > 562 µM.
As to `O=C(Cc1nc2ccccc2s1)C(=O)Nc1ccc(Cl)cc1`, the result was inactive.
For `C1=CC2(C=C1)OC21CCC2(C=CC3(C2)OC3C2CCCCC2)CC1` (stereo unspecified), the EC50 was > 200 µM and the IC50 came out at 51.3 µM.
Turning to `CCn1c(=O)c(C(=O)O)c(Cl)c2cc3c(cc21)OCO3`, the outcome was inactive.
For the molecule `O=C(O)Cc1ccc(Nc2nc3cc(C(F)(F)F)ccc3nc2C(=O)O)cc1`, the EC50 is > 200 µM and the IC50 is > 200 µM.
As to `NC(=O)CSc1nc2ccccc2c(=O)n1N`, the EC50 was > 200 µM and the IC50 was > 200 µM.
In the case of `CCN(CC)c1c(-c2c(OC(C)C)c(=O)c2=O)c(=O)n2ccsc2c1OC(C)=O`, the EC50 was > 200 µM and the IC50 came out at 141 µM.
The like results for `S=c1nc(COc2ccc(Cl)cc2)[nH][nH]1` were, in that order, > 1020 µM and > 1020 µM.
For the molecule `COC(=O)C(c1ccccc1)C(SCc1ccccc1)c1ccccc1` (stereo unspecified), the EC50 was > 200 µM and the 50% inhibitory concentration (IC50) was > 200 µM.
As to `Cn1c(=O)c(C(=O)Nc2nc(C34CC5CC(CC(C5)C3)C4)cs2)c(O)c2ccccc21`, the EC50 was > 100 µM and the IC50 is > 100 µM.
With `CCOC(=O)CSc1[nH]c(NC(=S)Nc2ccccc2)c(C(N)=O)c1C(N)=O`, the EC50 was > 200 µM and the IC50 stood at 97.7 µM.
In the case of `CC(=O)NC(CCC(=O)c1ccc(Oc2ccccc2)cc1)C(=O)O` (stereo unspecified), the EC50 is > 200 µM and the IC50 is > 200 µM.
Regarding `CC(C)CCCC(C)[C@H]1CC[C@H]2[C@@H]3CC[C@H]4C[C@@H](CCC=C(c5cc(Cl)c(O)c(C(=O)O)c5)c5cc(Cl)c(O)c(C(=O)O)c5)CC[C@]4(C)[C@H]3CC[C@]12C` (stereo partly specified) (tested in a mixture with another compound), the EC50 is > 100 µM and the IC50 came out at 40.7 µM.
In the case of `O=C(CCc1ccccc1)ON1C(=S)NC(c2ccccc2)(c2ccccc2)C1=S`, the EC50 was > 200 µM and the IC50 was 33.1 µM.
The like results for `Cc1c(C)c2c(c(N)c1C#N)C(=O)N(NC(=S)Nc1ccccc1)C2=O` were, in that order, > 200 µM and 158 µM.
Consider `O=C1/C(=C/c2ccc(O)c(O)c2)CCc2ccccc21`, for which the EC50 was > 162 µM and the IC50 came out at 2.4 µM.
As to `Oc1cccc2c(Br)ccnc12`, the EC50 was > 20 µM and the IC50 turned out to be 5.13 µM.
As for `NC(N)=Nc1ccc(/C=C2\C=Cc3ccccc32)cc1`, the EC50 is > 27.5 µM and the IC50 turned out to be 10.5 µM.
With `CCN=Cc1c(O)c(O)c(C(C)C)c2cc(C)c(-c3c(C)cc4c(C(C)C)c(O)c(O)c(C=NCC)c4c3O)c(O)c12`, the result was inactive.
`O=c1/c(=C/c2c(O)ccc3ccccc23)sc2nc3ccccc3n12`: the result was inactive.
As to `Oc1ccccc1/C=C/c1csnn1`, the EC50 is > 178 µM and the IC50 is > 178 µM.
As for `Cc1cc(C)nc(/C(=N\NC(N)=O)C(=O)Nc2nc3ccc(C)cc3s2)c1`, the EC50 is > 661 µM and the IC50 was > 661 µM.
`CCNC(=S)NNC(=O)c1ccccc1Nc1ccccc1C(=O)NNC(=S)NCC`: the outcome was inactive and the IC50 was 112 µM.
Take `Cc1cc(OCc2nnc3n2S(=O)(=O)c2ccccc2N3C)ccc1Cl`: the EC50 was > 200 µM and the IC50 is > 200 µM.
On to `Cc1csc(CP(=O)(OC(C)C)OC(C)C)n1`, for which the EC50 was > 200 µM and the IC50 is > 200 µM.
Take `CCOP(=O)(OCC)/C(C#N)=C/c1ccc(N(C)C)cc1`: the EC50 was > 813 µM and the IC50 was 437 µM.
Consider `c1ccn2nnnc2c1`, for which the EC50 is > 2090 µM and the IC50 is > 2090 µM.
In the case of `CC(=O)Oc1ccn2nc(C)c(Br)c2c1Br`, the EC50 was > 200 µM and the IC50 was found to be 36.3 µM.
The like results for `COC(=O)/C=C1/N=C(N(C)/N=C/c2ccccc2)NC1=O` were, in that order, > 200 µM and > 200 µM.
Turning to `CN(C)c1ccc(S(=O)c2ccc(N(C)C)cc2)cc1`, the EC50 was > 34.7 µM and the IC50 was > 34.7 µM.
For `NCCN1CC2CCC(CC2)C1`, the EC50 was > 200 µM and the IC50 was 182 µM.
On to `O=[N+]([O-])c1cccc2nc3ccccc3c(NCCCn3ccnc3[N+](=O)[O-])c12`, for which the EC50 is > 0.2 µM and the IC50 stood at 0.0457 µM.
Take `O=C1NC(Cc2ccc([N+](=O)[O-])cc2)C(=O)N2CCCC12` (stereo unspecified): the EC50 was > 200 µM and the IC50 is > 200 µM.
Turning to `O=C1CC2(CCNCC2)C(=O)N1N1CCCC1`, the EC50 is > 200 µM and the IC50 was > 200 µM.
As for `CCCCCCCCCCCCCCCC[N+](C)(C)CCCS(=O)(=O)[O-]`, the result was inactive.
`COc1ccc(C2CC(=O)CC(c3ccc(OC)cc3)C23C(=O)CCCC3=O)cc1` (stereo unspecified): the EC50 is > 200 µM and the IC50 was > 200 µM.
As to `CCOC(=O)c1c(C)[nH]c(=S)c(C#N)c1-c1ccc(Cl)cc1`, the EC50 is > 200 µM and the IC50 came out at 43.7 µM.
For the molecule `Nc1ncnc2c1ncn2CC1OCC(CO)O1` (stereo unspecified), the EC50 is > 3090 µM; the IC50 was 2750 µM and 2340 µM.
As to `OC(C#CCN1CCCC1)(c1ccccc1)c1ccccc1Cl` (stereo unspecified), the EC50 is > 200 µM and the IC50 worked out at 70.8 µM.
Regarding `Cc1ccc2nc(NC(=O)C(=O)C(C(=O)c3ccc4ccccc4c3)C3OC(=O)c4ccccc43)sc2c1` (stereo unspecified), the EC50 was > 50.1 µM and the IC50 came to 25.7 µM.
Turning to `O=S1(=O)C=C(c2ccccc2)C2(c3ccccc3)C=NNC21` (stereo unspecified), the EC50 was > 200 µM and the IC50 was > 200 µM.
Consider `OCC1CC(F)C(n2cnc3c(NOCc4ccccc4)ncnc32)O1` (stereo unspecified), for which the EC50 was > 100 µM and the IC50 was > 100 µM.
Consider `CS(=O)(=O)Sc1ccc(Cl)cc1`, for which the EC50 was > 132 µM and the IC50 was 9.33 µM.
The like results for `CCOC(=O)Cc1csc2nc(-c3ccccc3)nn12` were, in that order, > 200 µM and 132 µM.
The like results for `Cc1ccc2c(c1)SSc1ccc(C)cc1SS2` were, in that order, > 200 µM and 110 µM.
Take `COc1c(OP2(=S)OCC(C)(C)CO2)cnn(C2CCCCC2)c1=O`: the EC50 was > 200 µM and the IC50 came to 24.5 µM.
The like results for `O=C1C=CC2C3C(=O)N(c4ccccc4)C(=O)C3C1N2Cc1ccccc1` (stereo unspecified) were, in that order, > 1.17 µM and > 1.17 µM.
For `COc1ccc(N=NC(=O)NC(CC(C)C)C(=O)NC(Cc2ccccc2)C(=O)O)cc1` (stereo unspecified), the EC50 was > 200 µM and the IC50 was found to be 3.09 µM.
For the molecule `COc1cccc2c(Nc3ccc(S(=O)(=O)NC(C)=O)cc3)c3ccc([N+](=O)[O-])cc3nc12`, the EC50 is > 141 µM and the IC50 was found to be 95.5 µM.
Take `CC(=O)OC(=C(C#N)C#N)c1nccnc1C(C)=O`: the EC50 is > 200 µM and the IC50 is 11.2 µM.
`COc1cc2c(cc1C1=NC(C)(C)CO1)OCO2`: the EC50 is > 1000 µM and the IC50 is > 1000 µM.
In the case of `CCOC(=O)C(Cc1cn(C(C)=O)c2ccccc12)P(=O)(OCC)OCC` (stereo unspecified), the EC50 was > 200 µM and the IC50 was > 200 µM.
Consider `CCOC(=O)C#CCC/C=C(\C)COC1CCCCO1` (stereo unspecified), for which the result was inactive.
Take `CN1C(=O)OC2OC(C)(c3ccc(S(=O)(=O)c4ccccc4)cc3)C(=O)CC21` (stereo unspecified): the EC50 was > 123 µM and the IC50 is > 123 µM.
On to `CCCCC#COS(=O)(=O)c1ccc(C)cc1`, for which the EC50 is > 251 µM and the IC50 was 138 µM.
For the molecule `COC(=O)CC(C(C(=O)OC)C(=O)OC)N1C(=O)OCC1c1ccccc1` (stereo unspecified), the EC50 is > 135 µM and the IC50 was > 135 µM.
As to `O=C(NCC1(O)N=C(c2ccc(F)cc2)c2ccsc2-n2cccc21)c1ccc(Cl)cc1Cl` (stereo unspecified), the EC50 is > 200 µM and the IC50 stood at 18.2 µM.
For `C[C@H](OCc1ccccc1)C(=O)N1CCS(=O)(=O)N2CCC[C@H]2C1=O`, the EC50 was > 676 µM and the IC50 was > 676 µM.
Take `c1ccc(CC2(c3cc4ccccc4[nH]3)OCCO2)nc1`: the EC50 was > 200 µM and the IC50 was determined as 174 µM.
Turning to `O=C(Cc1nc2ccccc2s1)C(=O)Nc1ccc(Cl)cc1Cl`, the outcome was inactive.
In the case of `O=C1CSC(/C=C/c2ccccc2)N1c1ccc(-c2ccc(-n3c(-c4ccccc4)nc4ccccc4c3=O)cc2)cc1` (stereo unspecified), the EC50 is > 200 µM and the IC50 worked out at 28.2 µM.
With `CC(=O)OC12c3ccccc3C(c3ccccc31)C1C(=O)N(Nc3ccccc3)C(=O)C12` (stereo unspecified), the EC50 was > 200 µM and the IC50 was > 200 µM.
For `Cc1c2cc(O)c(=O)cc-2oc2cc(O)c(O)cc12`, the EC50 was > 200 µM; the IC50 was 12.6 µM and 39.8 µM.
As for `CCOC(=O)/C=C/n1c2ccccc2c(=O)c2ccccc21`, the EC50 was > 9.33 µM and the IC50 was > 9.33 µM.
In the case of `COc1cccc(-n2nnc3c(N)nc(N)nc32)c1`, the EC50 is > 200 µM and the IC50 was > 200 µM.
